Key:
Tyrosinase [1] = biological target: T1, Tyrosinase (Mus musculus, UniProt P11344); experiment: Inhibition of tyrosinase in mouse B16F0 cells assessed as reduction in melanin production incubated for 24 hrs by spectrophotometric analysis; type: cell-based
T1 sequence (P11344 whole entry): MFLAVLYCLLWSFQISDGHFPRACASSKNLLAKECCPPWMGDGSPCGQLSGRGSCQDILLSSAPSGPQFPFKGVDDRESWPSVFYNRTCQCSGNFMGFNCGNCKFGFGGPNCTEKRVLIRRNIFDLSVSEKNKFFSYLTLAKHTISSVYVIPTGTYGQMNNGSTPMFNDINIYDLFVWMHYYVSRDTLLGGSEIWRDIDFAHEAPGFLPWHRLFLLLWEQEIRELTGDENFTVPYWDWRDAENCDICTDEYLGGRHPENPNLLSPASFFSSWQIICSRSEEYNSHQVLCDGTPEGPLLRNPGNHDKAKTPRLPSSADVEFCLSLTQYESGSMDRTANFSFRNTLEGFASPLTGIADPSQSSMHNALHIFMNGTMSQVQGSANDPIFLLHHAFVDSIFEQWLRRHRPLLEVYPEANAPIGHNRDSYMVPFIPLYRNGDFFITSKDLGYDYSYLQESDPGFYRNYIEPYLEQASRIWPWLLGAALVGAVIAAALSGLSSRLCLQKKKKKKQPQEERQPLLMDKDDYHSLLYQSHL

[2] = biological target: T2, Tyrosinase (Mus musculus) (UniProt P11344); experiment: Potency index, ratio of IC50 for KA to IC50 for test compound for inhibition of tyrosinase in mouse B16F0 cells using L-DOPA as substrate by UV-Visible spectrophotometric analysis; type: cell-based
T2 sequence (whole entry): T1 sequence (P11344 whole entry)

Tyrosinase [3] = biological target: T3, Tyrosinase (Agaricus bisporus, UniProt O42713); experiment: Inhibition of mushroom tyrosinase diphenolase activity using L-dopa as substrate preincubated for 10 mins followed by substrate addition by UV-Visible spectrophotometric analysis
T3 sequence (O42713 whole entry): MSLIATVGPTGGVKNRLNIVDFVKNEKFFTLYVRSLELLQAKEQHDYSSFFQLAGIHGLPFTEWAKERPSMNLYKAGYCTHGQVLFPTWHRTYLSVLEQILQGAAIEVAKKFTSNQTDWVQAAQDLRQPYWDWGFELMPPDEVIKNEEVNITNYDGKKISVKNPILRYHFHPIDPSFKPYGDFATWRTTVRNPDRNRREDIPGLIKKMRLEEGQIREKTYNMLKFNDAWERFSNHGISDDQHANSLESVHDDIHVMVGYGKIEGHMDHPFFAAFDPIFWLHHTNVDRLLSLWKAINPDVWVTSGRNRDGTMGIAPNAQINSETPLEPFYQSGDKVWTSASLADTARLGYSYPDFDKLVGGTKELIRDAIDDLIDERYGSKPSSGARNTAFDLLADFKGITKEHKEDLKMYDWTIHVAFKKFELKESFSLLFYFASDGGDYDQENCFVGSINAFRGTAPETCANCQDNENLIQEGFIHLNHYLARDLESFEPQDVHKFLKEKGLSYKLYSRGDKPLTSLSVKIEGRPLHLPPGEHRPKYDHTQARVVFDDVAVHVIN

[4] = biological target: T2, Tyrosinase (Mus musculus); experiment: Potency index, ratio of compound effect to KA effect for inhibition of intracellular tyrosinase in mouse B16F0 cells using L-DOPA as substrate preincubated with compound followed by substrate addition and measured after 20 mins by UV-Visible spectrophotometric analysis; type: cell-based
[5] = biological target: T2, Tyrosinase (Mus musculus); experiment: Inhibition of intracellular tyrosinase in mouse B16F0 cells using L-DOPA as substrate preincubated with compound followed by substrate addition and measured after 20 mins by UV-Visible spectrophotometric analysis relative to control; type: cell-based
[6] = biological target: T2, Tyrosinase (Mus musculus); experiment: Potency index, ratio of compound effect to KA effect for inhibition of tyrosinase in mouse B16F0 cells at 10 uM using L-DOPA as substrate; type: cell-based
[7] = (§1) Cytotoxicity against mouse B16F0 cells incubated for 24 hrs by MTT assay; type: cell-based, B16-F0; settings: B16F0 cells, read-out: MNCC
B16-F0 = experiment: as §1; type: cell-based; settings: b16-f0, 24 h
Tyrosinase [8] = biological target: T1, Tyrosinase
Description: Inhibition of tyrosinase in mouse B16F0 cells using L-DOPA as substrate by UV-Visible spectrophotometric analysis

[9] = biological target: T2, Tyrosinase (Mus musculus); experiment: Inhibition of intracellular tyrosinase in mouse B16F0 cells at 25 uM using L-DOPA as substrate preincubated with compound followed by substrate addition and measured after 20 mins by UV-Visible spectrophotometric analysis relative to control; type: cell-based
[10] = biological target: T4, Tyrosinase (Agaricus bisporus) (UniProt O42713); experiment: Potency index, ratio of IC50 for KA to IC50 for test compound for inhibition of mushroom tyrosinase diphenolase activity using L-dopa as substrate preincubated for 10 mins followed by substrate addition by UV-Visible spectrophotometric analysis
T4 sequence (whole entry): T3 sequence (O42713 whole entry)

[11] = biological target: T2, Tyrosinase (Mus musculus); experiment: Inhibition of intracellular tyrosinase in mouse B16F0 cells at 10 uM using L-DOPA as substrate preincubated with compound followed by substrate addition and measured after 20 mins by UV-Visible spectrophotometric analysis relative to control; type: cell-based
[12] = biological target: T2, Tyrosinase (Mus musculus); experiment: Inhibition of intracellular tyrosinase in mouse B16F0 cells at 100 uM using L-DOPA as substrate preincubated with compound followed by substrate addition and measured after 20 mins by UV-Visible spectrophotometric analysis relative to control; type: cell-based
[13] = biological target: T2, Tyrosinase (Mus musculus); experiment: Inhibition of intracellular tyrosinase in mouse B16F0 cells at 1 uM using L-DOPA as substrate preincubated with compound followed by substrate addition and measured after 20 mins by UV-Visible spectrophotometric analysis relative to control; type: cell-based
[14] = biological target: T2, Tyrosinase (Mus musculus); experiment: Inhibition of intracellular tyrosinase in mouse B16F0 cells at 5 uM using L-DOPA as substrate preincubated with compound followed by substrate addition and measured after 20 mins by UV-Visible spectrophotometric analysis relative to control; type: cell-based
[15] = biological target: T2, Tyrosinase (Mus musculus); experiment: Inhibition of intracellular tyrosinase in mouse B16F0 cells at 50 uM using L-DOPA as substrate preincubated with compound followed by substrate addition and measured after 20 mins by UV-Visible spectrophotometric analysis relative to control; type: cell-based
[16] = biological target: T2, Tyrosinase (Mus musculus); experiment: Potency index, ratio of IC50 for KA to IC50 for test compound for inhibition of tyrosinase in mouse B16F0 cells assessed as reduction in melanin production incubated for 24 hrs by spectrophotometric analysis; type: cell-based

IC50 (Tyrosinase [1]): 25 µM
Ratio [2]: 3
IC50 (Tyrosinase [3]): 63.1 µM
Ratio [4]: 5
inhibition [5]: Dose-dependent effect
Ratio [6]: 6
IC50 (Tyrosinase [8]): 30.1 µM
inhibition [9]: 13%
Ratio IC50 [10]: 2
inhibition [11]: 7.8%
inhibition [12]: 20.1%
inhibition [13]: 3.9%
inhibition [14]: 6.1%
inhibition [15]: 16.2%
Ratio IC50 [16]: 8
Compound: COc1cc(O)c(C(=O)/C=C/c2ccccc2)c(O)c1C
MNTC at 24 h [7]: 100 µM
Activity (B16-F0): Dose-dependent effect
